From publication PMC9103184, “Kunitz-Type Peptides from Sea Anemones Protect Neuronal Cells against Parkinson’s Disease Inductors via Inhibition of ROS Production and ATP-Induced P2X7 Receptor Activation” (International Journal of Molecular Sciences, 2022)
pKd, pKi: −log10 of the molar value. Bridge positions count the residues as written; N and C are the ends. Ends that are not written are not given here.

What was measured:
trypsin [1] = biological target: T1, trypsin (Bos taurus, UniProt P00760); assay: Residual trypsin-inhibitory activity after heating; type: biochemical; settings: after heating to 100 °C; 7 μM peptide, 1.2 mM BAPNA, 37 °C, three parallel experiments
T1 sequence (P00760 24-246): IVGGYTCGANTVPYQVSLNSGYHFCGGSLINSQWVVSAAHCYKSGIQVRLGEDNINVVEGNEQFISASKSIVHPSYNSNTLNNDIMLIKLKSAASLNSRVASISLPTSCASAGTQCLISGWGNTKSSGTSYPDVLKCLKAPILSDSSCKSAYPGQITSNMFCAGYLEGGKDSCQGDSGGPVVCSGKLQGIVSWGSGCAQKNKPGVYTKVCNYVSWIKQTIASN
Description: Figure 6 The effects of temperature on the trypsin-inhibitory activity levels of peptides. Peptides were incubated at the temperatures for 30 min and their residual activities were measured.
The temperature influence on the activity levels of peptides was assessed by measuring their residual inhibitory activity levels. After preincubation at temperatures ranging from 25 to 100 °C for 25 min, the peptide solutions were added to trypsin solution and the reaction mixtures were incubated for 10 min at 37 °C, then 1.2 mM BAPNA was added, followed by incubation at 37 °C for 30 min. The final concentration of the peptides was 7 μM. Substrate hydrolysis was measured at 410 nm. The residual activity was calculated based on the results of three parallel experiments according to the following equation [60]:% = (1 − residual enzyme activity/enzyme activity without inhibitor) × 100

Recombinant human P2X7R = biological target: T2, Recombinant human P2X7R (Homo sapiens, UniProt Q99572); assay: SPR binding to immobilized P2X7R extracellular domain; settings: Biacore 3000, CM5 chip, P2X7R a.a. 47–334, HBS-N pH 7.4, 25 °C, peptide 5–100 μM, two-state (conformational change) binding model
T2 construct: complete extracellular domain, 36.8 kDa; purchased Abbexa LTD, Cambridge, UK
T2 sequence (Q99572 47-334): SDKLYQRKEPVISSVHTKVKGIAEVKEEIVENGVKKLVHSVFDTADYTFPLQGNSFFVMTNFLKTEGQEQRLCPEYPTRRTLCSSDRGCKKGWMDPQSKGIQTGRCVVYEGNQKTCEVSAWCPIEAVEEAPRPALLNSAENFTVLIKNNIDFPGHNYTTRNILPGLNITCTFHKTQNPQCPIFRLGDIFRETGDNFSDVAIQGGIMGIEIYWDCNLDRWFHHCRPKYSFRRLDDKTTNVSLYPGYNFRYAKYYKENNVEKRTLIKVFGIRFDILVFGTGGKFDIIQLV
Description: SPR analyses were performed based on using a Biacore 3000 optical biosensor (GE Healthcare, USA) running under the program “Biacore 3000 Control Software v.1.0”. Recombinant human P2X7R (sequence positions of 47–334 a.a.; complete extracellular domain, 36.8 kDa) (Abbexa LTD, Cambridge, UK) was covalently immobilized on the carboxymethylated surface of the Biacore CM5 sensor chip (Cytiva, Chicago, IL, USA), then activated by the 1:1 mixture of 0.2 M 1-ethyl-3-(3-dimethylaminopropyl)carbodiimide hydrochloride (EDC) and 0.05 M N-hydroxysuccinimide (NHS) via the injection of receptor solution (15 μg/mL) in 10 mM sodium acetate (pH 5.0) for 10 min at a flow rate of 5 μL/min. The reference channel without immobilized P2X7R was used to correct the effects of the non-specific binding of peptides to the chip surface. The quantity of the immobilized hP2X7R equaled 12300 RU (resonance units, 1 RU corresponds to 1 pg receptor bound per mm^2 of chip surface). HBS-N (10 mM HEPES, 150 mM NaCl, pH 7.4) (Cytiva, USA) was used as a running buffer for SPR assays. Peptide solutions in the HBS-N buffer over a concentration range of 5–100 μM were passed through biosensor channels (working and reference) at a flow rate of 10 µL/min for 3 min at 25 °C. Dissociation of the formed peptide–P2X7R complexes was registered at the same flow rate for no less than 6 min from the moment of sample injection. […]

[2] = Thermal stability by CD spectroscopy; type: physicochemical; settings: CD spectra and residual trypsin-inhibitory activity
Description: Figure 5 Evaluation of the thermal stability of peptides in deionized water via CD spectroscopy. Recordings of the CD spectra of HCIQ2c1 (a), HMIQ3c1 (b), HCIQ4c7 (c), and HCIQ1c9 (d) were conducted in the far UV region (190–240 nm) after the solutions were incubated over a temperature range from 25 °C to 100 °C for 20–25 min.
Circular dichroism (CD) spectra were recorded on a Chirascan-Plus CD spectropolarimeter (Applied Photophysics, Leatherhead, UK) in quartz cuvettes with an optical path length of 0.1 cm for the peptide spectrum region. The peptides were dissolved in deionized water ([…]) and incubated at temperatures ranging from 25 °C to 100 °C for 20–25 min before recording the CD spectra. The secondary structure elements were calculated using the Provencher–Glockner method using advanced Provencher calculation programs from the CDPro software package (Leatherhead, UK).

Kv channels = settings: cited from earlier work
6-OHDA-treated cells = settings: cited from earlier work
[3] = biological target: recombinant human P2X7R (47-334, complete extracellular domain) (human) (UniProt Q99572)
[4] = biological target: recombinant human P2X7R (47-334, complete extracellular domain) (human) (UniProt Q99572); remark: listed apart in the source
TRPV1 channels = assay: Electrophysiology on TRPV1 channels expressed in Xenopus laevis oocytes; type: cell-based
Description: Oocytes were injected with 50 nL of cRNA at a concentration of 1 ng/nL using a micro-injector (Drummond Scientific, Broomall, PA, USA).

trypsin [5] = biological target: trypsin
[6] = calculated using the CDSSR algorithm [54], cited from earlier work
Text: Table 1 The peptide secondary structural elements. | column: α-Helix / I; α-Helix / II; α-Helix / III; β-Structure / I; β-Structure / II; β-Structure / III; β-Turn; Unordered Structure

trypsin [7] = assay: enzyme inhibition kinetics (Dixon's method); trypsin 208 nM, substrate BAPNA 0.6 and 1.2 mM, peptide 0-20 uM; three parallel experiments
P2X7R [8] = type: cell-based, murine
Description: Neuro-2a cells were pre-incubated with studied peptides for 1 h at 37 °C with 5% CO2. Then, cells were washed twice with culture medium and loaded with 5 μM Fluo-8 dye (Sigma-Aldrich, St. Louis, MO, USA) and 1 μM Pluronic F-127 (Sigma-Aldrich, St. Louis, MO, USA) and incubated for 40 min at room temperature in HBSS saline at pH 7.4. Then, the cells were washed two times with the same solution but without the fluorescent dye and were incubated for 20–30 min at room temperature in the dark. In some experiments, Ca^2+-free medium was used. Here, 140 mM NaCl, 5 mM KCl, 0.8 mM MgCl2, 10 mM glucose, 10 mM HEPES, 5 mM EGTA, pH 7.4. ATP (1 mM final concentration) were added using a robotic microinjector (20 μL/well), then 10 s later the baseline recording and additional readings were taken up to 50 s at 1 s intervals. The standard P2X7R inhibitor A438079 (Sigma-Aldrich, St. Louis, MO, USA) was used as the inhibitory control. Ionomycin (Sigma-Aldrich, St. Louis, MO, USA) was used to generate a generic calcium signal in cells. Fluo-8 was excited at 488 nm, and the emission at 520 nm was measured with a PHERAstar plate reader (BMG LABTECH, Ortenberg, Germany).

Neuro-2a cells = assay: ATP-induced Neuro-2a cell death (MTT); type: cell-based, murine
Description: Figure 11 The effects of the peptides on ATP-induced Neuro-2a cell viability and activation of P2X7R. (a) Impact of the peptides on Neuro-2a cell viability in the presence of 4 mM ATP. The peptides were tested at concentrations of 0.01, 0.1, and 1.0 μM. Cells were incubated with peptides for 1 h at 37 °C, then for 48 h with ATP. […] The peptide effects were evaluated against the effects of ATP. The data are shown as means ± SE; *—p < 0.05 compared to the effect of ATP alone. […]
Then, 20 μL of substance solution was loaded into the cells and incubated for 24 h followed by replacement of the medium with tested substances and 100 μL of fresh medium. […] The absorbance of the converted dye formazan was measured using a Multiskan FC microplate photometer (Thermo Scientific, Waltham, MA, USA) at a wavelength of 570 nm [83, 84]. […] Cytotoxic activity was expressed as the percentage of cell viability.
At the end of the preincubation period, the cells were treated with peptides at concentrations of 0.01, 0.1, 1, and 10 μM for 1 h, after which 600 μM paraquat, 10 μM rotenone, 80 μM of 6-OHDA, 1 mM MPP^+, or 4 mM ATP (Sigma-Aldrich, St. Louis, MO, USA) was added. […] Cell viability was measured after 24 h (with paraquat, rotenone and 6-OHDA) or 48 h (with ATP and MPP^+) using the MTT assay [85, 86, 87].

P2X7R [9] = assay: ATP-induced YO-PRO-1 uptake in Neuro-2a cells; type: cell-based, murine
Description: Figure 11 The effects of the peptides on ATP-induced Neuro-2a cell viability and activation of P2X7R. (a) Impact of the peptides on Neuro-2a cell viability in the presence of 4 mM ATP. The peptides were tested at concentrations of 0.01, 0.1, and 1.0 μM. Cells were incubated with peptides for 1 h at 37 °C, then for 48 h with ATP. (b) Effects of the peptides (0.01, 0.1, and 1.0 μM) on YO-PRO-1 uptake in Neuro-2a cells. ATP was used as a P2X7R agonist. A438079 (10 μM) was used as a standard inhibitor of P2X7R. The peptide effects were evaluated against the effects of ATP. The data are shown as means ± SE; *—p < 0.05 compared to the effect of ATP alone.
For the uptake measurements of the large cationic dye YO-PRO-1, the peptides at final concentrations of 0.01, 0.1, and 1.0 μM were added to the culture medium with Neuro-2a cells and further incubated for 1 h at 37 °C with 5% CO2. Then, the cells were washed once with Hanks’ balanced salt solution (HBSS) (140 mM NaCl, 5 mM KCl, 0.8 mM MgCl2, 2 mM CaCl2, 10 mM glucose, 10 mM HEPES, pH 7.4) and filled with 180 μL of the same buffer. YO-PRO-1 (Sigma-Aldrich, St. Louis, MO, USA) was loaded into the wells to a final concentration of 5 μM, the cells were incubated for 15 min at 37 °C, then ATP was added to a final concentration of 4 mM and the plates were incubated for an additional 10 min. Then, the cells were washed three times with the buffer solution and the fluorescence intensity levels were measured with a PHERAstar FS plate reader (BMG, Germany) at λex = 480 nm and λem = 520 nm. A438079 (10 μM), a standard inhibitor of P2X7R, was used as positive control. The effectiveness of the peptides was evaluated relative to the control with ATP.

Sequence of Kunitz-type peptide HCIQ1c9 (A0A6B7FEJ3 15-72 limits assumed): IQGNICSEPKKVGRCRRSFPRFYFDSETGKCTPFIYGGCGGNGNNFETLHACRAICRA

Question: For “IQGNICSEPKKVGRCRESFPRFYFDSETGKCTPFIYGGCGGNGNNFETLHACRAICRA (disulfide 6-56, 15-39, 31-52) [HCIQ4c7]”, which “decrease in trypsin-inhibitory activity after heating” value (trypsin [1]) is on record?
Answer: 7%

Question: What about the pKd (Recombinant human P2X7R) of the same molecule?
Answer: 4.34

Question: What about the “thermostability: retains conformation and biological activity until” value [2] of the same molecule?
Answer: 90–100 °C

Question: What does the source list for “HCRG1: Kunitz-type peptide from H. crispa, C0HJU6 (RGICSEPKVVGPCKAGLRRFYYDSETGECKPFIYGGCKGNKNNFETLHACRGICRA; UniProt C0HJU6 1-56, looked up)”?
Answer: activity on Kv channels (Kv channels): blockers of Kv channels; effect on ROS production in 6-OHDA-treated cells (6-OHDA-treated cells): maintained ROS production in 6-OHDA-treated cells at the reference level

Question: Which results are given for Kunitz-type peptide HMIQ3c1?
Answer: decrease of the stable Ca2+ response (Fluo-8) to 1 mM ATP in mouse Neuro-2a cells pre-incubated with the peptide at 0.1, 1.0 and 10.0 uM; value at 10 uM [3]: 40.6%; reduction of ATP (4 mM)-induced YO-PRO-1 dye uptake into mouse Neuro-2a cells; peptide at 0.01, 0.1 and 1.0 uM; value at 0.1 uM [4]: 28.1%

Question: For `COc1cc(CNC(=O)CCCC/C=C/C(C)C)ccc1O` [capsaicin], which “effect on TRPV1 channels” value (TRPV1 channels; capsaicin 2 µM (agonist control)) is on record?
Answer: activation of the TRPV1 channels

Question: What does the source list for “HCRG2: Kunitz-type peptide from H. crispa, C0HJU7 (RGICLEPKVVGPCKARIRRFYYDSETGKCTPFIYGGCGGNGNNFETLHACRGICRA; UniProt C0HJU7 1-56, looked up)”?
Answer: activity on Kv channels (Kv channels): blockers of Kv channels; effect on ROS production in 6-OHDA-treated cells (6-OHDA-treated cells): maintained ROS production in 6-OHDA-treated cells at the reference level

Question: For Kunitz-type peptide HCIQ4c7, which decrease of the stable Ca2+ response (Fluo-8) to 1 mM ATP in mouse Neuro-2a cells pre-incubated with the peptide at 0.1, 1.0 and 10.0 uM; value at 10 uM [3] is on record?
Answer: 59.1%

Question: And the decrease of trypsin-inhibitory activity (BAPNA hydrolysis) of 7 uM peptide after preincubation at 25 to 100 °C; value after 100 °C (trypsin [5])?
Answer: 7 % decrease

Question: What about the reduction of ATP (4 mM)-induced YO-PRO-1 dye uptake into mouse Neuro-2a cells; peptide at 0.01, 0.1 and 1.0 uM; value at 1 uM [4] of the same molecule?
Answer: 28.5%

Question: For “SHPI-1: Kunitz-type peptide from Stichodactyla helianthus, UniProtKB P31713 (SICSEPKKVGRCKGYFPRFYFDSETGKCTPFIYGGCGGNGNNFETLHQCRAICRA; UniProt P31713 1-55, looked up)”, which “Unordered Structure” value [6] is on record?
Answer: 40.0

Question: What about the β-Turn [6] of the same molecule?
Answer: 18.2

Question: And the “α-Helix III” value ([6]; summary value)?
Answer: 20.0

Question: What about the “β-Structure III” value ([6]; summary value) of the same molecule?
Answer: 21.8

Question: With Kunitz-type peptide HCIQ1c9 as the molecule, how does the pKi (trypsin [7]) read?
Answer: 6.20

Question: What about the decrease of trypsin-inhibitory activity (BAPNA hydrolysis) of 7 uM peptide after preincubation at 60 to 100 °C (trypsin [5]) of the same molecule?
Answer: 30 to 70 % decrease

Question: What does the source list for “IQGNICSEPKKVGRCRGSFPRFYFDSETGKCTPFIYGGCGGNGNNFETLRRCRAICRA (disulfide 6-56, 15-39, 31-52) [HMIQ3c1]”?
Answer: pKd (Recombinant human P2X7R): 4.36; thermostability: retains conformation and biological activity until [2]: 90–100 °C

Question: With `Clc1cccc(-c2nnnn2Cc2cccnc2)c1Cl` [A438079] as the molecule, how does the “decrease in ATP-induced stable calcium response” value (P2X7R [8]; 10 μM, 1 mM ATP, Fluo-8, relative to control, means ± SE) read?
Answer: 47.7 ± 4.4%

Question: And the “increase in viability of ATP-treated cells” value (Neuro-2a cells; 10 μM, pre-incubation, 4 mM ATP 48 h, vs ATP alone)?
Answer: 21.3 ± 0.5%

Question: And the “reduction of ATP-induced YO-PRO-1 uptake” value (P2X7R [9]; 10 μM (standard inhibitor), 4 mM ATP, means ± SE)?
Answer: 18.5 ± 3.2%

Question: Which “effect on TRPV1 channels” value (TRPV1 channels; capsazepine 10 µM (antagonist control)) does the source give for `Oc1cc2c(cc1O)CN(C(=S)NCCc1ccc(Cl)cc1)CCC2` [capsazepine] here?
Answer: blocking of the channels

Question: What does the source list for `Nc1ncnc2c1ncn2[C@@H]1O[C@H](COP(=O)(O)OP(=O)(O)OP(=O)(O)O)[C@@H](O)[C@H]1O` [ATP, adenosine-5’-triphosphate]?
Answer: effect on [Ca2+]i (P2X7R [8]; ATP 1 mM): large sustained increase in [Ca^2+]i; total dead cells after ATP (Neuro-2a cells; ATP 4 mM, 48 h, compared with control cells): up to 30.15 ± 0.68%; increase in YO-PRO-1 dye penetration (P2X7R [9]; ATP 4 mM): 49.4 ± 5.9%
